pEC50: −log10 of the molar value.

The subject of data set [1] is L929. The experiment in a line: Anti-necroptic activity in mouse L929 cells assessed as TNFalpha/Z-VAD (TSZ) induced necroptosis by measuring cell viability preincubated for 1 hr followed by TSZ addition and measured after 24 hrs by celltiter-glo luminescent cell viability assay. The class given is functional, cell-based. On the technique in general: ATP-based viability assays read luminescence as a measure of living cells.

The subject of data set [2] is HT-29. The experiment in a line: Anti-necroptic activity in human HT-29 cells assessed as TNFalpha/Z-VAD (TSZ) induced necroptosis by measuring cell viability preincubated for 1 hr followed by TSZ addition ans measured after 24 hrs by celltiter-glo luminescent cell viability assay. It counts as functional, cell-based.
Data set [3] is described as follows: Metabolic stability in human liver microsomes assessed as half life by LC-MS/MS analysis. It counts as ADME. For orientation: Liver microsomes are vesicles of endoplasmic reticulum, rich in cytochrome P450 enzymes.

Take `CCc1ncc(-c2ccc3nc(NC(C)=O)sc3c2)cc1NC(=O)OC1CCCCC1`: the negative logarithm of the EC50 (pEC50) was 6.82 in data set [1] and 7.13 in data set [2].
With `CCC(=O)Nc1nc2ccc(-c3cnc(C)c(NC(=O)OC4CCCCC4)c3)cc2s1`, in data set [2], the negative logarithm of the EC50 (pEC50) is 7.42.
The same measure, in the same setting: with `CC(=O)Nc1nc2ccc(-c3ccc(C)c(NC(=O)OC4CCCCC4)n3)cc2s1` the figure was 6.19.
Take `CC(=O)Nc1cn2cc(-c3cnc(C)c(NC(=O)OC4CCCCC4)c3)ccc2n1`: the pEC50 is 7.35 in data set [1] and 7.01 in data set [2].
Regarding `Cc1ncc(-c2ccc3nc(NC(=O)C4CC4)sc3c2)cc1NC(=O)OC1CCCCC1`, the negative-log EC50 (pEC50) in data set [1] was 8.54; in data set [2], 8.80. For the same molecule, the half-life in data set [3] was 6.5 min.
On the same counts, the results for `Cc1ncc(-c2ccc3nc(NC(=O)C4CC4)sc3c2)cc1NC(=O)OC1CCCC1` are 8.08, 8.05 and 5.7 min.
Regarding `CC(=O)Nc1nc2ccc(-c3cc(NC(=O)OC4CCCCC4)c(C)cn3)cc2s1`, the pEC50 in data set [1] was 7.82; in data set [2] it was 7.14.
In the case of `CC(=O)Nc1nc2ccc(-c3cnc(C#N)c(NC(=O)OC4CCCCC4)c3)cc2s1`, the pEC50 in data set [2] was 6.27.
In the case of `CC(=O)Nc1nc2ccc(-c3cnc(C)c(NC(=O)OC4CCCCC4)c3)cn2n1`, the negative-log EC50 (pEC50) in data set [2] was under 6.00.
Consider `Cc1ncc(-c2ccc3nc(NC(=O)c4ccccc4)sc3c2)cc1NC(=O)OC1CCCCC1`, for which the pEC50 in data set [2] is 7.28.
As to `CC(=O)Nc1nc2ccc(-c3cc(NC(=O)OC4CCCCC4)c(C)nn3)cc2s1`, the pEC50 in data set [2] was 6.69.
For `CCC(C)OC(=O)Nc1cc(-c2ccc3nc(NC(=O)C4CC4)sc3c2)cnc1C` (stereo not drawn), the negative-log EC50 (pEC50) in data set [2] was 7.77. Besides, the half-life in data set [3] amounted to 14 min.
Take `CC(=O)Nc1cn2nc(-c3cnc(C)c(NC(=O)OC4CCCCC4)c3)ccc2n1`: the negative-log EC50 (pEC50) in data set [2] is 7.01.
Take `Cc1ncc(-c2ccc3nc(NC(=O)C4CC4)sc3c2)cc1NC(=O)OC1CC(C)OC(C)C1` (stereo not drawn): the pEC50 was 8.28 in data set [1] and 8.32 in data set [2]. In addition, the half-life in data set [3] was 12 min.
Take `Cc1ncc(-c2ccc3nc(N)sc3c2)cc1NC(=O)OC1CCCCC1`: the pEC50 in data set [2] was 7.00.
For `CC(=O)Nc1nc2ccc(-c3cnc(C)c(NC(=O)OC4CCCCC4)c3)cc2s1`, the values for the pEC50 in data set [1] and in data set [2] were 7.89 and 7.64, respectively.
Turning to `CC(=O)Nc1nc2cnc(-c3cnc(C)c(NC(=O)OC4CCCCC4)c3)cc2s1`, the pEC50 in data set [2] is under 6.00.
On to `Cc1ncc(-c2ccc3nc(NS(C)(=O)=O)sc3c2)cc1NC(=O)OC1CCCCC1`, for which, in data set [2], the negative logarithm of the EC50 (pEC50) was under 6.00.
On to `Cc1ncc(-c2ccc3nc(NC(=O)C4CC4)sc3c2)cc1NC(=O)OC1CCC(F)(F)CC1`, for which the pEC50 in data set [1] was 8.70; in data set [2], 8.21. For the same molecule, the half-life in data set [3] is 43 min.
Consider `CNC(=O)Nc1nc2ccc(-c3cnc(C)c(NC(=O)OC4CCCCC4)c3)cc2s1`, for which the pEC50 in data set [2] is 8.15.
For the molecule `CC(=O)Nc1nc2cc(-c3cnc(C)c(NC(=O)OC4CCCCC4)c3)ccn2n1`, in data set [2], the pEC50 was under 6.00.
Still for that read-out and setting: as for `CC(=O)Nc1nc2ncc(-c3cnc(C)c(NC(=O)OC4CCCCC4)c3)cc2s1`, the figure is under 6.00; as for `CCOC(=O)Nc1nc2ccc(-c3cnc(C)c(NC(=O)OC4CCCCC4)c3)cc2s1`, 7.28.
`CC(=O)Nc1nc2ccc(-c3cnc(C)c(NC(=O)OC4CCCCC4)c3)nc2s1`: the pEC50 in data set [1] is 7.52; in data set [2] it was 6.89.
As for `Cc1ncc(-c2ccc3nc(NC(=O)C4CC4)sc3c2)cc1NC(=O)OC1CCC1`, the negative logarithm of the EC50 (pEC50) in data set [2] was 7.80.
Still for that read-out and setting: with `CNc1nc2ccc(-c3cnc(C)c(NC(=O)OC4CCCCC4)c3)cc2s1` the figure was under 6.00.
`COc1ncc(-c2ccc3nc(NC(C)=O)sc3c2)cc1NC(=O)OC1CCCCC1`: the pEC50 in data set [2] is 6.74.
`Cc1ncc(-c2ccc3nc(NC(=O)C4CC4)sc3c2)cc1NC(=O)OC1CCCOC1` (stereo not drawn): the negative-log EC50 (pEC50) in data set [2] was 7.57. Besides, in data set [3], the half-life came out at 15 min.

As a reminder, the pEC50 is −log10 of the EC50, conventionally taken in molar units. What is called half-life is the time in which the quantity being followed falls by half.
